The target in assay [1] is T1, Tyrosinase (Agaricus bisporus, UniProt O42713).
T1 sequence (O42713 whole entry): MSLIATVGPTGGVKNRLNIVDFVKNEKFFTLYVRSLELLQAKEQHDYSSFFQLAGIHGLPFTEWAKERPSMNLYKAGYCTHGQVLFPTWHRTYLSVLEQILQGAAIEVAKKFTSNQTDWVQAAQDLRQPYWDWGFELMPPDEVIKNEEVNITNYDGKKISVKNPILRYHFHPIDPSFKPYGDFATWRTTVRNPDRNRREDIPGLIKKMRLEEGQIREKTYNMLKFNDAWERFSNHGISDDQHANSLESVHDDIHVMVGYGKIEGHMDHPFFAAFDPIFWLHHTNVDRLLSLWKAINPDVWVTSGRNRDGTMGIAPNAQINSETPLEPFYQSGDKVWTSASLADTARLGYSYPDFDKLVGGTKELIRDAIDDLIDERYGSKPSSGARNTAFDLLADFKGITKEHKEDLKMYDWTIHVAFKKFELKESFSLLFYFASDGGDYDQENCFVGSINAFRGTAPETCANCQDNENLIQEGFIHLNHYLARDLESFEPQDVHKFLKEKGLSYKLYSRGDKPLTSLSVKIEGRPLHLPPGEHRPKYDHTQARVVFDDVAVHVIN
Description: Inhibition of mushroom tyrosinase

Assay [2] deals with T1, Tyrosinase. This is another data set of the same source.
Description: Non-competitive inhibition of mushroom tyrosinase
The target in assay [3] is T2, Tyrosinase (Homo sapiens) (UniProt P14679).
T2 sequence (whole entry): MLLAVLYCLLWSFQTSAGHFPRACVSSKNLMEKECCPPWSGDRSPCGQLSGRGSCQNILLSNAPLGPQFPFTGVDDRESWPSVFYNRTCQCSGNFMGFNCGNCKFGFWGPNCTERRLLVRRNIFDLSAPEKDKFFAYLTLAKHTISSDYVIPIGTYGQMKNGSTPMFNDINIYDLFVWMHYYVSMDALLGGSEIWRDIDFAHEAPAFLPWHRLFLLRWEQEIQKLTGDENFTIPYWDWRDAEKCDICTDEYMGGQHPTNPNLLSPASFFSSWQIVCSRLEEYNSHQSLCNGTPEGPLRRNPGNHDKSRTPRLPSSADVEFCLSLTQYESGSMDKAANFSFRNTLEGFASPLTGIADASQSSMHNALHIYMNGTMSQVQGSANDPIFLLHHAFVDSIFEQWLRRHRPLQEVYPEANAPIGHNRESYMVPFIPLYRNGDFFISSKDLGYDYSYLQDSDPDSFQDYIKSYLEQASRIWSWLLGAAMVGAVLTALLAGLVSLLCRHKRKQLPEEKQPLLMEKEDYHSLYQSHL
Nature of the assay: Ratio of kojic acid IC50 to compound IC50 for human tyrosinase.

In assay [4] the target is T3, Tyrosinase (Homo sapiens, UniProt P14679).
T3 sequence (P14679 whole entry): T2 sequence (whole entry)
Briefly: Inhibition of tyrosinase in human HMV-2 melanoma cells after 5 mins by spectrophotometry. The class given is cell-based.

Assay [5] addresses T3, Tyrosinase.
Description: (§1) Competitive inhibition of tyrosinase in human G-361 cells incubated for 10 mins measured for 2 hrs by MBTH-based spectrophotometry
Assay [6] deals with T2, Tyrosinase (Homo sapiens). Nature of the assay: Inhibition of tyrosinase in human G-361 cells at >200 uM incubated for 10 mins measured for 2 hrs by MBTH-based spectrophotometry. It counts as cell-based.
Assay [7] concerns the target T2, Tyrosinase (Homo sapiens). Particulars: G-361.
Description: as §1

Calls of active or inactive are those of the source. The rule behind the calls is not given here.

What is called IC50 is the concentration that inhibits the measured activity by half. Low readings indicate greater potency, high ones weaker potency. Compound `O=c1cc(-c2ccc(O)c(O)c2)oc2c(O)c(O)ccc12` gave an IC50 against Tyrosinase [1] of 0.07 µM.
On Tyrosinase [2], `CCCCC/C=C\C/C=C\CCCCCCCC(=O)OCC(COC(=O)CCCCCCC/C=C\C/C=C\CCCCC)OC(=O)CCCCCCC/C=C\C/C=C\CCCCC` had an IC50 of 8.4 µM.
`O=C(NCCc1c[nH]c2cc(O)ccc12)c1cc(O)cc(O)c1`: the Ratio IC50 in assay [3] stood at 34.1. For the same compound, at Tyrosinase [4], half-maximal inhibition (IC50) was put at 9.1 µM.
As for `CC(C)c1ccccc(=O)c1O` [ALPHA-THUJAPLICIN], the Ratio IC50 in assay [3] is less than 0.57. At Tyrosinase [5], this compound showed an IC50 of more than 1000 µM. For the same compound, the inhibition entry in assay [6] is “Active”.
As to `CC(C)c1ccc(O)c(=O)cc1` [GAMMA-THUJAPLICIN], the inhibition result in assay [7] was “Dose-dependent effect”. In addition, the Ratio IC50 in assay [3] was 497. Also, the IC50 against Tyrosinase [5] stood at 1.15 µM.
Consider `CC(C)c1cccc(=O)c(O)c1` [HINOKITIOL], for which the inhibition entry in assay [7] was “Dose-dependent effect”. In addition, the Ratio IC50 in assay [3] came to 63.6. The compound further showed an IC50 at Tyrosinase [5] of 8.98 µM.
As to `O=Cc1ccc(O)c(O)c1` [PROTOCATECHUALDEHYDE], on Tyrosinase [1], it took 2.9 µM to reach half-maximal inhibition (IC50). In other words, the single-digit micromolar range.
Regarding `CCCCCCCC/C=C\CCCCCCCC(=O)OCC(COC(=O)CCCCCCC/C=C\CCCCCCCC)OC(=O)CCCCCCC/C=C\CCCCCCCC` [TRIOLEIN], on Tyrosinase [2], the IC50 was found to be 30 µM. This lies in the double-digit micromolar range.

(Values after ChEMBL document CHEMBL3352108, “Structure-activity relationships of the thujaplicins for inhibition of human tyrosinase” (Bioorg Med Chem, 2014).)
